What was measured:
[1] = Thermostability study at 65° C. (UPLC-MS); type: physicochemical; conditions: up to 120 h; for degradation at 65° C. (percentage of starting material and degradation products, peak areas at 260 nm): 300 μM, 40% DMSO, 1.0 M potassium acetate
Experimental: An aqueous mixture was prepared, containing 300 μM dATP-SPh-NPP, 40% DMSO and 1.0 M potassium acetate. For reference another mixture with 300 μM dATP replacing dATP-SPh-NPP was prepared. 150 μL of each mixture were incubated at 65° C. in a Thermoshaker. After 0, 2, 18, 25, and 120 h samples of each solution (20 μL) were analyzed by UPLC-MS (Ultra performance liquid chromatography—mass spectrometry). The peak areas at 260 nm were used to calculate the percentage of starting material and degradation products.

[2] = Photocleavage by UV-LED irradiation (UPLC-MS); type: physicochemical; conditions: UV-LED λmax=393 nm
Experimental: Two aqueous mixtures of dATP-SPh-NPP and ATP-DMNPE (300 μM each) were prepared in sodium phosphate buffer (100 mM, pH 7.0). Both samples were irradiated simultaneously with light from an UV-LED lamp (InGaN, Quantum well, λmax=393 nm, 0.18 W/LED) in open vials without shaking or stirring. After 0, 1, 2, 4, 8, and 16 min. the irradiation was shortly paused for sample removal (20 μL) and subsequent UPLC-MS analysis. The peak areas at 260 nm were used to calculate the percentage of starting material and photocleavage products. The molecular identities of the starting materials and cleavage products were confirmed by mass spectrometry.

[3] = tested on: polymerase enzyme; experiment: Real-Time PCR (TaqMan PCR) amplification with caged dATP, with and without UV exposure; type: biochemical; conditions: 400 μM dATP-SPh-NPP instead of dATP, 400 cp target DNA
Experimental: Real-Time PCR (TaqMan® PCR) mixtures with a total volume of 50 μL were prepared by combining three components termed PCR master mixture (20 μL), buffer mixture (20 μL), and dNTP mixture (10 μL). All PCR components were prepared from DEPC water. The PCR master mixture contained tricine buffer (pH 8.2), potassium acetate, glycerol, DMSO, detergent, target DNA (400 cp), polymerase aptamer, probe, primers, SYBR green dye, and polymerase enzyme. The buffer mixture contained manganese acetate (8.3 mM) and imidazole (0, 3.0, or 6.0 mM). The dNTP mixture contained dATP (400 μM), dCTP (400 μM), dGTP (400 μM), and dUTP (800 μM). Another dNTP mixture contained dATP-SPh-NPP (400 μM) instead of dATP. The final concentration of DNA target was 400 cp/reaction.
TaqMan® PCRs of equal composition were positioned on two separate sections of a 96-well plate. Each section contained PCR mixtures with regular dNTPs and PCR mixtures containing dATP-SPh-NPP. Each PCR was prepared as triplicate. One section of the plate was covered with aluminum foil, whereas the other section was exposed to light from an UV-LED lamp (InGaN, Quantum well, λmax=393 nm, 0.18 W/LED) for 8.0 min. at room temperature. […] The analysis of PCR growth curves was performed from fluorescence data collected in the Cy5.5 channel, while analysis of melting curves was based on fluorescence data collected in the FAM channel (465-510 nm).

[4] = 5′-hydroxyl protecting group on phosphoramidites; cited from earlier work

Row | irradiation time for full cleavage ([2]; 300 μM, 100 mM sodium phosphate buffer pH 7.0) [min] | photocleavage speed compared to ATP-DMNPE ([2]; both irradiated simultaneously, pH 7.0) | dATP released by irradiation ([2]; irradiation for 5 minutes, 300 μM, 100 mM sodium phosphate buffer pH 7.0) [%] | PCR amplification after UV irradiation ([3]; UV light for 8.0 min. at room temperature) | PCR amplification, no UV exposure ([3]; no UV exposure) | Compound | degradation at 65° C. (percentage of starting material and degradation products, peak areas at 260 nm) [1] | thermostability compared to dATP [1] | increase in photo-deprotection efficiency compared to conventional NPPOC [4] [fold]
1 | – | – | – | – | – | Nc1ncnc2c1ncn2[C@H]1C[C@H](O)[C@@H](COP(=O)(O)OP(=O)(O)OP(=O)(O)O)O1 [dATP, reference compound] | quickly degraded to the mono- and diphosphates | – | –
2 | 8 | significantly faster | > 90 | leads to DNA amplification | prevents PCR amplification | thiophenyl o-nitrophenylpropyl dATP [dATP-SPh-NPP] | no degradation products were observed | significantly more thermostable than dATP | –
3 | – | – | – | – | – | thiophenyl-2-(2-nitrophenyl)-propoxycarbonyl [SPh-NPPOC] | – | – | 12

Reference: patent publication US11078534B2, “Photocleavable nucleotide reagents with high stability” (Roche Molecular Systems, Inc., priority 2017, dated 2021)
